Target: T1, TLR8 (Homo sapiens, UniProt Q9NR97)
T1 construct: host or cells: HEK293 (HEK-BLUE-hTLR8)
T1 sequence (Q9NR97 27-1041): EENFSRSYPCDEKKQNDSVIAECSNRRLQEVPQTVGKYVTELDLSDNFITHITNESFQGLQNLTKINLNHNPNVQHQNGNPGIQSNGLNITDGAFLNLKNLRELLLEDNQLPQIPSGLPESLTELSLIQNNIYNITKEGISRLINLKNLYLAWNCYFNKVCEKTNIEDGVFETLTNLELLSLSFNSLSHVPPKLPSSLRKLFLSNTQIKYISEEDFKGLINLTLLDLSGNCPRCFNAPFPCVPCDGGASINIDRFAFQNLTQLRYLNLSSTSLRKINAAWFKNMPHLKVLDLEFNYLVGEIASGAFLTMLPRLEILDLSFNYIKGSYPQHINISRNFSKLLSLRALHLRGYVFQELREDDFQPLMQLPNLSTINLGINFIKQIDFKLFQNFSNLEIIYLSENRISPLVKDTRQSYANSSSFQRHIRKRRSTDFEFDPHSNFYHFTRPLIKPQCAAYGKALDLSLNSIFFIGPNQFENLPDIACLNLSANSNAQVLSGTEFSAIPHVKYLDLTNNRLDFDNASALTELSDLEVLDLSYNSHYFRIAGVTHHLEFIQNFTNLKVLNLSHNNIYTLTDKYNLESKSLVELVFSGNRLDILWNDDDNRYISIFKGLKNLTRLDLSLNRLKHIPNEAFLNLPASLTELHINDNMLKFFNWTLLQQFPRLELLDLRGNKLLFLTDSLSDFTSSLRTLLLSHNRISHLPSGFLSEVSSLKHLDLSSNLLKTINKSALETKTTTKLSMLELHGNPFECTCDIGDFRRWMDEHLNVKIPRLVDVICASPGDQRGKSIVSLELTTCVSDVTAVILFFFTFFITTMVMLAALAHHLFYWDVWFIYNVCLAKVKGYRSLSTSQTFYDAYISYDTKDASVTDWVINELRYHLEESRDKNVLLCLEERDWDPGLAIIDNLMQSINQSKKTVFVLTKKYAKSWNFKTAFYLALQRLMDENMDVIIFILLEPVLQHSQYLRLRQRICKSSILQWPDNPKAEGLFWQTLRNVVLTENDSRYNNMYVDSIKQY
Assay: TLR8 cell based assay (HEK-BLUE-hTLR8, SEAP reporter linked to NF-κB activation)
Conditions: HEK-BLUE-hTLR8 cells
Experimental: In this assay, the bioactivity of compound of formula Iw as measured using a cell based assay. The assay was performed in human embryonic kidney cells (HEK293) expressing TLR8 or other TLR family members such as TLR4, TLR7 and TLR9 (for selectivity screens). The activity of specific TLR agonists was assessed using the secretory embryonic alkaline phosphatase (SEAP) reporter gene that is linked to NF-κB activation in response to TLR stimulation. The SEAP activity was measured using the Quanti-Blue substrate (InvivoGen) after TLR agonist treatment.
The detailed experimental method is as follow:
HEK-BLUE-hTLR8 cell line was purchased from InvivoGen. The cells were cultured in Dulbecco's Modified Eagle's Media containing 4.5 g/L […] (Sigma-Aldrich) and 10% FBS. The cells were cultured at 37° C., 95% humidity and 5% CO2.
Test concentrations of the compounds ranged from 0.5 nM to 15 μM with 10 points. A known TLR8 agonist was added as positive control and 1 μl of DMSO was added as negative control.
The cells were prepared as follows: The cells were removed from the incubator and growth medium was discarded. The cells were gently rinsed with pre-warmed 10 ml PBS for a T-150 flask. 12 ml pre-warmed growth medium was added, and the cells were detached by tapping the flask. Cell clumps were dissociated by gently pipetting up and down. The cells were counted. Single cell suspension was prepared at 200,000 cells per ml in growth medium and 200 μl of the cell suspension (40,000 cells per well) were immediately added to each well of the plate. The final DMSO concentration of each well was 0.5%.
The cells were cultured and treated with the compounds at 37° C., 5% CO2 for 24 h.
20 μL of the supernatant of each well were added to 180 μL of QUANTI-Blue, and the plates were incubated at 37° C. for 1.5 hour. Optical density was measured using a spectrophotometer at 650 nm (OD data). Activivation was calculated by using the equation below: Activivation %=(Compound OD mean value−DMSO OD mean value)/(positive control OD mean value−DMSO OD mean value)×100
The data were analyzed using the GraphPad to get EC50 values and fitting dose response curves of the compounds.

[1] = 24 h treatment, SEAP/QUANTI-Blue readout

## CCCN(CCC)C(=O)C1=Cc2ccc(-c3ccc4c(=O)[nH]ccc4c3)cc2N=C(N)C1 [Compound 1-1-1]
[1]
  EC50: 1000 to 10000 nM

## CCCN(CCC)C(=O)C1=Cc2ccc(-c3ccc4c(=O)n(CC)c(C)cc4c3)cc2N=C(N)C1 [Compound 1-2-2]
[1]
  EC50: 100 to 1000 nM

## CCCN(CCC)C(=O)C1=Cc2ccc(-c3ccc4c(=O)n(CC)ccc4c3)cc2N=C(N)C1 [Compound 1-2-3]
[1]
  EC50: 100 to 1000 nM

## CCCN(CCC)C(=O)C1=Cc2ccc(-c3ccc4c(=O)n(CC(C)C)ccc4c3)cc2N=C(N)C1 [Compound 1-2-5]
[1]
  EC50: 100 to 1000 nM

## CCCN(CCC)C(=O)C1=Cc2ccc(-c3ccc4c(=O)n(CCO)ccc4c3)cc2N=C(N)C1 [Compound 1-2-6]
[1]
  EC50: < 100 nM

## CCCN(CCC)C(=O)C1=Cc2ccc(-c3ccc4c(=O)n(CCCO)ccc4c3)cc2N=C(N)C1 [Compound 1-2-7]
[1]
  EC50: 100 to 1000 nM

## CCCN(CCC)C(=O)C1=Cc2ccc(-c3ccc4c(=O)n(CCP(C)(=O)OCC)ccc4c3)cc2N=C(N)C1 (stereo not shown) [Compound 1-2-11]
[1]
  EC50: < 100 nM

## CCCN(CCC)C(=O)C1=Cc2ccc(-c3ccc4c(=O)n(CCN(C)C)ccc4c3)cc2N=C(N)C1 [Compound 1-2-12]
[1]
  EC50: 100 to 1000 nM

## CCCN(CCC)C(=O)C1=Cc2ccc(-c3ccc4c(=O)n(CCNS(N)(=O)=O)ccc4c3)cc2N=C(N)C1 [Compound 1-2-20]
[1]
  EC50: 100 to 1000 nM

## CCCN(CCC)C(=O)C1=Cc2ccc(-c3ccc4c(=O)n(CC(=O)N(C)C)ccc4c3)cc2N=C(N)C1 [Compound 1-2-24]
[1]
  EC50: < 100 nM

## CCCN(CCC)C(=O)C1=Cc2ccc(-c3ccc4c(=O)n(CC(=O)NCC)ccc4c3)cc2N=C(N)C1 [Compound 1-2-25]
[1]
  EC50: < 100 nM

## CCCN(CCC)C(=O)C1=Cc2ccc(-c3ccc4c(=O)n(CC(=O)N5CCCC5)ccc4c3)cc2N=C(N)C1 [Compound 1-2-26]
[1]
  EC50: < 100 nM

## CCCCn1ccc2cc(-c3ccc4c(c3)N=C(N)CC(C(=O)N(CCC)CCC)=C4)ccc2c1=O [Compound 1-2-27]
[1]
  EC50: 100 to 1000 nM

## CCCN(CCC)C(=O)C1=Cc2ccc(-c3ccc4c(=O)n(Cc5ccno5)ccc4c3)cc2N=C(N)C1 [Compound 1-2-29]
[1]
  EC50: 100 to 1000 nM

## CCCN(CCC)C(=O)C1=Cc2ccc(-c3ccc4c(=O)n(Cc5nnc(C)o5)ccc4c3)cc2N=C(N)C1 [Compound 1-2-30]
[1]
  EC50: < 100 nM

## CCCN(CCC)C(=O)C1=Cc2ccc(-c3ccc4c(=O)n(Cc5cc[nH]n5)ccc4c3)cc2N=C(N)C1 [Compound 1-2-34]
[1]
  EC50: < 100 nM

## CCCN(CCC)C(=O)C1=Cc2ccc(-c3ccc4c(=O)n(CCn5ccnc5)ccc4c3)cc2N=C(N)C1 [Compound 1-2-37]
[1]
  EC50: < 100 nM

## CCCN(CCC)C(=O)C1=Cc2ccc(-c3ccc4c(=O)n(Cc5nnn[nH]5)ccc4c3)cc2N=C(N)C1 [Compound 1-2-38]
[1]
  EC50: 1000 to 10000 nM

## CCCN(CCC)C(=O)C1=Cc2ccc(-c3ccc4c(=O)n(Cc5nnn(C)n5)ccc4c3)cc2N=C(N)C1 [Compound 1-2-39]
[1]
  EC50: < 100 nM
Bound stated
  EC50: < 10 nM

## CCCN(CCC)C(=O)C1=Cc2ccc(-c3ccc4c(=O)n(Cc5ncnn5C)ccc4c3)cc2N=C(N)C1 [Compound 1-2-41]
[1]
  EC50: < 100 nM
Bound stated
  EC50: < 10 nM

## CCCN(CCC)C(=O)C1=Cc2ccc(-c3ccc4c(=O)n(CC(=O)O)ccc4c3)cc2N=C(N)C1 [Compound 1-2-42]
[1]
  EC50: 1000 to 10000 nM

## CCCN(CCC)C(=O)C1=Cc2ccc(-c3ccc4c(=O)n(Cc5cnccn5)ccc4c3)cc2N=C(N)C1 [Compound 1-2-44]
[1]
  EC50: < 100 nM

## CCCN(CCC)C(=O)C1=Cc2ccc(-c3ccc4c(=O)n(Cc5nc(OC)cc(OC)n5)ccc4c3)cc2N=C(N)C1 [Compound 1-2-46]
[1]
  EC50: < 100 nM

## CCCN(CCC)C(=O)C1=Cc2ccc(-c3ccc4c(=O)n(CCc5cnccn5)ccc4c3)cc2N=C(N)C1 [Compound 1-2-47]
[1]
  EC50: 100 to 1000 nM

## CCCN(CCC)C(=O)C1=Cc2ccc(-c3ccc4c(=O)n(Cc5nccn5C(C)C)ccc4c3)cc2N=C(N)C1 [Compound 1-2-49]
[1]
  EC50: < 100 nM

## CCCN(CCC)C(=O)C1=Cc2ccc(-c3ccc4c(=O)n(CCc5ccccn5)ccc4c3)cc2N=C(N)C1 [Compound 1-2-50]
[1]
  EC50: 100 to 1000 nM

## CCCN(CCC)C(=O)C1=Cc2ccc(-c3ccc4ccn(CCO)c(=O)c4c3)cc2N=C(N)C1 [Compound 1-2-51]
[1]
  EC50: 1000 to 10000 nM

## CCCN(CCC)C(=O)C1=Cc2ccc(-c3ccc4c(c3)CN(CC)C4=O)cc2N=C(N)C1 [Compound 1-3-1]
[1]
  EC50: < 100 nM

## CCCN(CCC)C(=O)C1=Cc2ccc(-c3ccc4c(c3)CCN(CC)C4=O)cc2N=C(N)C1 [Compound 1-4-1]
[1]
  EC50: 100 to 1000 nM

## CCCN(CCC)C(=O)C1=Cc2ccc(-c3cc4c(=O)n(CC)ccc4n3C)cc2N=C(N)C1 [Compound 1-5-1]
[1]
  EC50: 1000 to 10000 nM

## CCCN(CCC)C(=O)C1=Cc2ccc(-c3cc4c(=O)n(CC)ccc4s3)cc2N=C(N)C1 [Compound 1-5-2]
[1]
  EC50: 1000 to 10000 nM

## CCCN(CCC)C(=O)C1=Cc2ccc(-c3cnc4c(c3)CN(CCO)C4=O)cc2N=C(N)C1 [Compound 1-6-1]
[1]
  EC50: 100 to 1000 nM

## CCCN(CCC)C(=O)C1=Cc2ccc(-c3ccc4c(n3)CN(CCO)C4=O)cc2N=C(N)C1 [Compound 1-6-2]
[1]
  EC50: 100 to 1000 nM

## CCCN(CCC)C(=O)C1=Cc2ccc(-c3ccc4c(=O)n(CC(N)=O)cnc4c3)cc2N=C(N)C1 [Compound 1-7-1]
[1]
  EC50: 100 to 1000 nM

## CCCN(CCC)C(=O)C1=Cc2ccc(-c3ccc4c(=O)n(CC(=O)NC)cnc4c3)cc2N=C(N)C1 [Compound 1-7-3]
[1]
  EC50: < 100 nM

## CCCN(CCC)C(=O)C1=Cc2ccc(-c3ccc4c(=O)n(CC(C)(C)O)cnc4c3)cc2N=C(N)C1 [Compound 1-7-5]
[1]
  EC50: < 100 nM

## CCCN(CCC)C(=O)C1=Cc2ccc(-c3ccc4c(=O)n(CCNS(C)(=O)=O)cnc4c3)cc2N=C(N)C1 [Compound 1-7-6]
[1]
  EC50: 100 to 1000 nM

## CCCN(CCC)C(=O)C1=Cc2ccc(-c3ccc4c(=O)n(CCCS(C)(=O)=O)ncc4c3)cc2N=C(N)C1 [Compound 1-8-6]
[1]
  EC50: < 100 nM
Bound stated
  EC50: < 10 nM

## CCCN(CCC)C(=O)C1=Cc2ccc(-c3ccc4c(=O)n(CCC(N)=O)ncc4c3)cc2N=C(N)C1 [Compound 1-8-7]
[1]
  EC50: < 100 nM

## CCCN(CCC)C(=O)C1=Cc2ccc(-c3ccc4c(=O)n(CCNS(C)(=O)=O)ncc4c3)cc2N=C(N)C1 [Compound 1-8-8]
[1]
  EC50: < 100 nM

## CCCN(CCC)C(=O)C1=Cc2ccc(-c3ccc4c(=O)n(CCOC)ncc4c3)cc2N=C(N)C1 [Compound 1-8-9]
[1]
  EC50: < 100 nM
Bound stated
  EC50: < 10 nM

## CCCN(CCC)C(=O)C1=Cc2ccc(-c3ccc4c(=O)n(Cc5nccs5)ncc4c3)cc2N=C(N)C1 [Compound 1-8-10]
[1]
  EC50: < 100 nM

## CCCN(CCC)C(=O)C1=Cc2ccc(-c3ccc4c(=O)n(CC[S+](C)[O-])ncc4c3)cc2N=C(N)C1 (stereo not shown) [Compound 1-8-11]
[1]
  EC50: < 100 nM

## CCCN(CCC)C(=O)C1=Cc2ccc(-c3ccc4c(=O)n(CCn5cccn5)ncc4c3)cc2N=C(N)C1 [Compound 1-8-13]
[1]
  EC50: < 100 nM

## CCCN(CCC)C(=O)C1=Cc2ccc(-c3ccc4c(=O)n(CCP(=O)(OCC)OCC)ncc4c3)cc2N=C(N)C1 [Compound 1-8-14]
[1]
  EC50: < 100 nM

## CCCN(CCC)C(=O)C1=Cc2ccc(-c3ccc4c(=O)n(Cc5nc(C)cc(C)n5)ncc4c3)cc2N=C(N)C1 [Compound 1-8-17]
[1]
  EC50: < 100 nM
Bound stated
  EC50: < 10 nM

## CCCN(CCC)C(=O)C1=Cc2ccc(-c3ccc4c(=O)n(CCP(C)(=O)OCC)ncc4c3)cc2N=C(N)C1 (stereo not shown) [Compound 1-8-18]
[1]
  EC50: < 100 nM

— patent publication US10669252B2, “Benzazepine derivative, preparation method, pharmaceutical composition and use thereof” (SHANGHAI DE NOVO PHARMATECH CO., LTD., priority 2016, dated 2020)
